Results on 23 compounds are retold here after PubChem BioAssay AID330 (DTP/NCI, 2004).

The structures appear in SMILES notation. “And” between values parts separate entries of the source, which are not always exact repeats. Equal entries are not always repeated. Inconclusive results and toxic doses are left out.

This test concerns P388 leukemia ip, CD2F1 mice, survival T/C. In words: NCI In Vivo Anticancer Drug Screen. Data for tumor model P388 Leukemia (intraperitoneal) in CD2F1 (CDF1) mice. To be noted: endpoint: median survival time, higher = longer survival. The method, boiled down: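 Mice carrying the transplanted tumor received test compound or vehicle. Survival was recorded in each group, and the value is the treated-group measurement divided by that of the vehicle-treated control group.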

Where [1] appears, read: dose: 50.0 mg/kg/injection, schedule: Q01DX005 (ip), vehicle: Klucel (hydroxypropylcellulose) (HPC).
[2] abbreviates: dose: 100.0 mg/kg/injection, schedule: Q01DX005 (ip), vehicle: Klucel (hydroxypropylcellulose) (HPC).
Setting [3] is: dose: 200.0 mg/kg/injection, schedule: Q01DX005 (ip), vehicle: Klucel (hydroxypropylcellulose) (HPC).
[4] abbreviates: dose: 25.0 mg/kg/injection, schedule: Q01DX009 (ip), vehicle: saline.
Where [5] appears, read: dose: 12.5 mg/kg/injection, schedule: Q01DX009 (ip), vehicle: saline with Tween-80.
Setting [6] is: dose: 25.0 mg/kg/injection, schedule: Q01DX009 (ip), vehicle: saline with Tween-80.
The mark [7] stands for this setting: dose: 50.0 mg/kg/injection, schedule: Q01DX009 (ip), vehicle: saline with Tween-80.
Where [8] appears, read: dose: 200.0 mg/kg/injection, schedule: Q01DX009 (ip), vehicle: saline with Tween-80.
Where [9] appears, read: dose: 50.0 mg/kg/injection, schedule: Q01DX009 (ip), vehicle: Klucel (hydroxypropylcellulose) (HPC).
Setting [10] is: dose: 100.0 mg/kg/injection, schedule: Q01DX009 (ip), vehicle: Klucel (hydroxypropylcellulose) (HPC).
Setting [11] is: dose: 200.0 mg/kg/injection, schedule: Q01DX009 (ip), vehicle: Klucel (hydroxypropylcellulose) (HPC).
Where [12] appears, read: dose: 50.0 mg/kg/injection, schedule: Q01DX009 (ip), vehicle: saline.
Where [13] appears, read: dose: 100.0 mg/kg/injection, schedule: Q01DX009 (ip), vehicle: saline.
The mark [14] stands for this setting: dose: 200.0 mg/kg/injection, schedule: Q01DX009 (ip), vehicle: saline.
The mark [15] stands for this setting: dose: 100.0 mg/kg/injection, schedule: Q01DX009 (ip), vehicle: saline with Tween-80.

As for `CC(C)OC(=O)c1ccc(=O)oc1`, the T/C is 105 % of control (dose: 100.0 mg/kg/injection, schedule: Q04DX003 (ip), vehicle: Klucel (hydroxypropylcellulose) (HPC)); 99 % of control (dose: 200.0 mg/kg/injection, schedule: Q04DX003 (ip), vehicle: Klucel (hydroxypropylcellulose) (HPC)); 110 % of control (dose: 400.0 mg/kg/injection, schedule: Q04DX003 (ip), vehicle: Klucel (hydroxypropylcellulose) (HPC)).

Take `CC(C)[C@H](N)C(=O)NCCNC(=O)[C@@H](N)C(C)C`: the T/C (dose: 60.0 mg/kg/injection, schedule: Q01DX005 (ip), vehicle: saline) is 91 % of control and the T/C (dose: 120.0 mg/kg/injection, schedule: Q01DX005 (ip), vehicle: saline) is 98 % of control.

`CCOC(=O)CC(=O)Cc1oc2c(C(C)=O)c(O)c(C)c(O)c2c1C`: the T/C under setting [1] was 86 % of control, the T/C under setting [2] was 87 % of control and the T/C under setting [3] is 90 % of control.

Turning to `OCCNCCNCC[OH2+].OCCNCCNCC[OH2+].[Ni+2].[O-][Cl+3]([O-])([O-])[O-]`, the T/C reads like this: (dose: 12.5 mg/kg/injection, schedule: Q01DX009 (ip), vehicle: saline) 100 % of control; under setting [4], 98 % of control.

`CC(=O)OC/C=C(\C)CC(/C=C(C)/C=C/C1=C(C)CCCC1(C)C)S(=O)(=O)c1ccccc1` (stereo not given): the T/C is 100 % of control under setting [5]; 106 % of control under setting [6]; 90 % of control and 93 % of control under setting [7]; 92 % of control under setting [8].

As to `O=S(=O)(c1ccc(NC(=S)NC23CC4CC(CC(C4)C2)C3)cc1)N1CCCCC1`, the T/C is 88 % of control under setting [9], 93 % of control under setting [10] and 94 % of control under setting [11].

As to `O=C1c2ccccc2C(=O)c2c(NCCN3CCCCC3)ccc(NCCN3CCCCC3)c21`, the T/C runs as follows: (dose: 4.0 mg/kg/injection, schedule: Q01DX009 (ip), vehicle: acid diluted with saline) 102 % of control; (dose: 8.0 mg/kg/injection, schedule: Q01DX009 (ip), vehicle: acid diluted with saline) 100 % of control; (dose: 12.5 mg/kg/injection, schedule: Q01DX009 (ip), vehicle: other) 98 % of control; (dose: 16.0 mg/kg/injection, schedule: Q01DX009 (ip), vehicle: acid diluted with saline) 103 % of control; (dose: 25.0 mg/kg/injection, schedule: Q01DX009 (ip), vehicle: other) 104 % of control; (dose: 32.0 mg/kg/injection, schedule: Q01DX009 (ip), vehicle: acid diluted with saline) 101 % of control. Moreover, the T/C was 104 % of control (dose: 50.0 mg/kg/injection, schedule: Q01DX009 (ip), vehicle: other); 104 % of control (dose: 64.0 mg/kg/injection, schedule: Q01DX009 (ip), vehicle: acid diluted with saline); 121 % of control (dose: 100.0 mg/kg/injection, schedule: Q01DX009 (ip), vehicle: other).

`BrC1=CC(Br)=C2N=C(N3CCCC3)N=C3N=C(N4CCCC4)N=C1N32`: the T/C is 97 % of control (dose: 3.75 mg/kg/injection, schedule: Q01DX005 (ip), vehicle: Klucel + Tween-80); 97 % of control (dose: 7.5 mg/kg/injection, schedule: Q01DX005 (ip), vehicle: Klucel + Tween-80); 89 % of control and 90 % of control (dose: 15.0 mg/kg/injection, schedule: Q01DX005 (ip), vehicle: Klucel + Tween-80); 86 % of control (dose: 60.0 mg/kg/injection, schedule: Q01DX005 (ip), vehicle: Klucel + Tween-80).

As for `CC(C)C(=O)N[C@H]1C[C@H]2CCC1(C)C2(C)C`, the T/C is 103 % of control and 93 % of control under setting [1]; 107 % of control and 96 % of control under setting [2]; 111 % of control and 95 % of control under setting [3].

With `CCOC(=O)Nc1c(C)cc(C)cc1C`, the T/C was 99 % of control (dose: 25.0 mg/kg/injection, schedule: Q01DX009 (ip), vehicle: Klucel (hydroxypropylcellulose) (HPC)); 100 % of control under setting [9]; 94 % of control under setting [10]; 100 % of control under setting [11].

For the compound `Cc1ccc(O)c(C(=NCCN=C(c2ccccc2)c2cc(C)ccc2O)c2ccccc2)c1`, the T/C was 103 % of control and 106 % of control and 98 % of control under setting [1]; 100 % of control and 104 % of control and 118 % of control under setting [2]; 100 % of control and 101 % of control and 121 % of control under setting [3]; 96 % of control (dose: 400.0 mg/kg/injection, schedule: Q01DX005 (ip), vehicle: Klucel (hydroxypropylcellulose) (HPC)).

On to `O=c1[nH]c2ccccc2n1CCCN1CCC(n2c(=O)[nH]c3cc(Cl)ccc32)CC1`, for which the T/C reads like this: under setting [12], 90 % of control; under setting [13], 91 % of control; under setting [14], 88 % of control.

On to `O=C(O)CC(O)(CC(=O)O)C(=O)O`, for which the T/C (dose: 0.12 % in 0.5 ml injection vol, schedule: Q01DX009 (ip), vehicle: water) is 100 % of control; the T/C (dose: 0.25 % in 0.5 ml injection vol, schedule: Q01DX009 (ip), vehicle: water) is 99 % of control and 94 % of control; the T/C (dose: 0.5 % in 0.5 ml injection vol, schedule: Q01DX009 (ip), vehicle: water) is 88 % of control and 90 % of control and 94 % of control.

Consider `O=C1NCCN=C1Cc1ccccc1`, for which the T/C is 93 % of control (dose: 100.0 mg/kg/injection, schedule: Q04DX002 (ip), vehicle: saline with Tween-80); 100 % of control (dose: 200.0 mg/kg/injection, schedule: Q04DX002 (ip), vehicle: saline with Tween-80); 95 % of control (dose: 400.0 mg/kg/injection, schedule: Q04DX002 (ip), vehicle: saline with Tween-80).

In the case of `CN1C(=O)N(C2CCCCC2)C(=O)C(C)(CN2CCCCC2)C1=O` (stereo not given), the T/C by setting is: under setting [5], 102 % of control; under setting [6], 100 % of control; under setting [7], 102 % of control; (dose: 50.0 mg/kg/injection, schedule: Q01DX009 (sc), vehicle: saline with Tween-80) 100 % of control; (dose: 200.0 mg/kg/injection, schedule: Q01DX009 (sc), vehicle: saline with Tween-80) 108 % of control.

`NC(=O)N=Nc1ccc(Cl)cc1`: the T/C (dose: 50.0 mg/kg/injection, schedule: Q01DX005 (ip), vehicle: saline with Tween-80) was 104 % of control; the T/C (dose: 100.0 mg/kg/injection, schedule: Q01DX005 (ip), vehicle: saline with Tween-80) was 101 % of control; the T/C (dose: 200.0 mg/kg/injection, schedule: Q01DX005 (ip), vehicle: saline with Tween-80) was 104 % of control.

Turning to `CN(C)S(=O)(=O)Nc1cccc(Br)c1`, the T/C is, setting by setting: under setting [7], 103 % of control; under setting [15], 102 % of control; under setting [8], 106 % of control.

With `COC1CC23OC2(C1)C1C=CC3N(C(=O)OCC(Cl)(Cl)Cl)N1C(=O)OCC(Cl)(Cl)Cl` (stereo not given), the T/C under setting [1] was 102 % of control, the T/C under setting [2] was 105 % of control and the T/C under setting [3] is 102 % of control.

Take `CC1(C)N=C(N)N=C(N)N1c1ccc(CNC(=O)Nc2ccc(S(=O)(=O)F)cc2)c(Cl)c1`: the T/C was 154 % of control (dose: 132.0 mg/kg/injection, schedule: Q04DX003 (ip), vehicle: saline with Tween-80) and 154 % of control (dose: 200.0 mg/kg/injection, schedule: Q04DX003 (ip), vehicle: saline with Tween-80).

`CS(=O)(=O)c1cc(=O)[nH]c(=O)[nH]1`: the T/C under setting [6] was 90 % of control, the T/C under setting [7] was 95 % of control, the T/C under setting [15] is 100 % of control and the T/C under setting [8] is 95 % of control.

As for `Nc1ccc(C(=O)Nc2ccc(C(=O)Nc3ccc4cc(S(=O)(=O)O)cc(S(=O)(=O)O)c4c3)cc2)cc1`, the T/C is 103 % of control (dose: 50.0 mg/kg/injection, schedule: Q01DX005 (ip), vehicle: saline); 103 % of control (dose: 100.0 mg/kg/injection, schedule: Q01DX005 (ip), vehicle: saline); 103 % of control (dose: 200.0 mg/kg/injection, schedule: Q01DX005 (ip), vehicle: saline).

For the compound `O=P1(CNc2ccccc2)CN(c2ccccc2)CN(c2ccccc2)C1`, the T/C reads like this: (dose: 12.5 mg/kg/injection, schedule: Q01DX001 (ip), vehicle: saline with Tween-80) 100 % of control; (dose: 25.0 mg/kg/injection, schedule: Q01DX001 (ip), vehicle: saline with Tween-80) 100 % of control; (dose: 50.0 mg/kg/injection, schedule: Q01DX001 (ip), vehicle: saline with Tween-80) 100 % of control.

As to `O=C(O)CCc1cccc(O)c1`, the T/C was 110 % of control under setting [4], 101 % of control under setting [12], 103 % of control under setting [13] and 95 % of control under setting [14].
